The values below come from patent publication US7939554B2, “Protein phosphatase inhibitors” (The Cleveland Clinic Foundation, priority 2006, dated 2011).

One assay relates to B16 melanoma tumors. Description: B16 melanoma tumor growth in athymic nude mice. It counts as in vivo, mouse. Conditions: 3 mg/kg/day, oral.
A further assay deals with T1, recombinant SHP-1 (Homo sapiens, UniProt P29350).
T1 construct: Recombinant protein of SHP-1 PTPase catalytic domain was described
T1 sequence (P29350 244-515 limits assumed): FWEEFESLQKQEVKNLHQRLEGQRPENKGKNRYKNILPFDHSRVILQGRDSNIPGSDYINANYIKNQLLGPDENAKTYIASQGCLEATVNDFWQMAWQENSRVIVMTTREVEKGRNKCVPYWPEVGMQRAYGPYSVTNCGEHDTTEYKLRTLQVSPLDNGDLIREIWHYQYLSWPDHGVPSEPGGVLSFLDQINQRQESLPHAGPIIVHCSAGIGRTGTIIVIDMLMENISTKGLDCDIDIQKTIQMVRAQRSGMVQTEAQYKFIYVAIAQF
The assay can be described thus: rapid in vitro SHP-1 PTPase assay (DIFMUP fluorescence substrate). It counts as biochemical. Conditions: L5 and analogs, 1 μg/well; FIG. 12A. Here is the method: Recombinant protein of SHP-1 PTPase catalytic domain was described and stored in Tris buffer (25 mM Tris, pH7.5, 1 mM EDTA, 2 μM 2-ME, 25% glycerol) at −80° C. Fluorescence substrate DIFMUP (6,8-difluoro-4 methylumbelliferyl phosphate) was purchased (Molecular Probes). SSG was reported previously (21-23) and stored at 4° C. in darkness prior to use. Human and mouse IFNγ ELISPOT Kit (R & D System), CD4^+ Cell Intracellular IFNγ Detection Kit (BD Bioscience) and CD8^+ Cell Intracellular IFNγ Detection Kit (BD Bioscience) were purchased from commercial sources. Human Jurkat T cell line (26) and murine B16 melanoma cell line (ATCC) were maintained in […] culture medium supplemented with 10% fetal calf serum (FCS). Antibodies against pLck-pY394 (Cell Signaling), pLck-pY505 (Cell Signaling), pZap70 (pY319, BD Biosciences), pSlp76 (pY128, BD Biosciences) and pLat (pY226, BD Biosciences) were purchased from commercial sources.
A rapid SHP-1 PTPase assay was developed for screening the compounds in a commercial library of 34,000 drug-like small chemicals (Chembridge, Mass.). Briefly, compounds of the library (1 μg/well in […]) were placed in 96-well plates (Falcon, 353072) and mixed with recombinant SHP-1 protein (0.1 μg/well) in […] of HEPES buffer (50 mM HEPS, pH 7.5, 150 mM NaCl, 1 mM EDTA, 0.2 mM DTT and 0.1 mg/ml BSA). The plates were incubated at room temperature for 10 minutes prior to the addition of fluorescence substrate DIFMUP (40 μM stock in HEPES buffer, 10 μl/well) to initiate PTPase reaction. Upon completion of PTPase reaction at room temperature for 1 hr in darkness, fluorescence signal of individual wells were recorded using a Vector^2 Multilabel Counter (Vector, CA). They were compared to that of control SHP-1 PTPase reaction (˜10,000 units of fluorescence signal) in the absence of any compound (100%) for calculating relative SHP-1 inhibition induced by the compounds after subtracting the background signal (˜500 units of fluorescence signal) of the substrate.
To evaluate their SHP-1 inhibitory activity, the analogs (1 μg/well in 0.2 μl DMSO) were aliquot individually to 96-well plates (Falcon, 353072) and mixed with recombinant SHP-1 protein (0.1 μg/well) in 90 μl of HEPES buffer (50 mM HEPS, pH 7.5, 150 mM NaCl, 1 mM EDTA, 0.2 mM DTT and 0.1 mg/ml BSA). The plates were incubated at room temperature for 10 minutes prior to the addition of fluorescence substrate DIFMUP (40 μM stock in HEPES buffer, 10 μl/well) to initiate PTPase reaction. Upon completion of PTPase reaction at room temperature for 1 hr in darkness, fluorescence signal of individual wells were recorded using a Vector^2 Multilabel Counter (Vector, CA). […]

In assay [1] the test system is spleen pLck and IFNγ+ cells. The assay can be described thus: in vivo induction of spleen pLck and IFNγ+ cells in mice. More on the design: species or system mouse. Here is the method:
Spleens were harvested one hour post-treatment on day 4 and processed into splenocytes, which were used for assessing pLck levels by SDS-PAGE/Western blotting and for quantification of IFNγ+ cells by ELISPOT assays. Mice were also treated with L5 (˜10 mg/kg body weight, daily, s. c., n=2) to evaluate the toxicity of the compounds in vivo.

Setting [2] is: ~3 mg/kg body weight, s.c., daily, 4 days.

Procedure for B16 melanoma tumors: To assess L5 anti-tumor activity, C57BL/6J mice or athymic nude mice (˜8-week old, female, Taconic Farms, Germantown, N.Y.) were inoculated (s.c.) at the flanks with B16 melanoma cells (4×10^4 cells/site). Four days post-inoculation, the mice were treated with PBS (Control) or L5 (˜3 mg/kg body weight/daily, Monday-Friday/week, oral gavage). Tumor volume (n=5) was measured during the study period and calculated using the formula for a prolate spheroid. Student's t test was used for assessing the significance of tumor volume differences among differential treatment groups. Mouse viability (daily) and body weights (weekly) were also recorded during the study period. Major internal organs of the mice were inspected visually upon their termination at the end of the experiment.

With `O=C1C=CC(=O)C(c2cc(Cl)ccc2Cl)=C1` [L5], the “B16 tumor growth in T-cell-deficient mice” value in the assay with B16 melanoma tumors is on record as “not inhibited”. Moreover, the “inhibition of phosphatase activity of recombinant SHP-1” value on recombinant SHP-1 is given as “completely or almost completely inhibited”. Moreover, the “effect on splenocyte pLck in treated mice” value in assay [1] (1 mg/kg of body weight) is on record as “minor effect”. In assay [1] (setting [2]), the “spleen IFNγ+ cells increase in treated mice” value was “approximately 3 fold” and the “splenocyte pLck increase in treated mice” value is reported as about 3.3 fold.
